According to patent publication US9700057B2, “Bradyrhizobium strains” (NOVOZYMES BIOAG A/S, priority 2011, dated 2017):

Test system: parental strain USDA 532C
Assay: Kill rate of USDA 532C using the mutagen ethyl methanesulfonate (EMS)
Type: cell-based, Bradyrhizobia japonicum
Procedure: The following experiment(s) were performed to determine the application rate of the mutagen, ethyl methanosulfonate (EMS) that would give a 99.9-99.99 percent kill rate for parental strain USDA 532C. This rate determination will become part of the mutagenesis protocol used to generate desiccation-resistant putative mutants although the method of mutagenesis may evolve for efficiency.
Parental strain USDA 532C was grown in six 10 ml YEM disposable culture tubes for two days and 5 ml of the culture was inoculated into four 250 ml flasks containing 50 ml YEM medium. The flasks were incubated for two days at 30° C. shaker. The culture from the flasks were subsequently centrifuged in 50 ml disposable sterile tubes at 8,000 rpm for ten minutes in a Sorvall RC 6 Plus® centrifuge and combined into one tube. The pellet was re-suspended in 4 ml of fresh YEM medium and separated into four 1.5 ml microcentrifuge tubes. The tubes would each represent different application rates used for the mutagenesis process.
Once the culture have been aliquoted into separate tubes and the mutagen EMS (Sigma, C3H8O3S, FW 124.16, #M0880-1G) added to each tube, the tubes were vortexed vigorously and placed in an empty 250 ml flask. The flask containing the reaction tubes were incubated for 30 minutes at 30° C. in a shaker. Immediately following the incubation period, the tubes were washed five times with 0.16M sodium thiosulfate (STS, Fisher Chemical, Na2S2O3*5H2O, FW 248.18, #S445-3)) solution to inactivate the mutagen. After washing, the cells in the reaction tubes were sheared with 21 gauge syringe needle (BD 1 ml 21G1 Latex Free Syringe PrecisionGlide® Needle, 0.8 mm×25 mm, #309624) and dilutions were completed and plated on YEMA plates. The cell counts were available after five days incubation at 30° C. and the percent kill of the EMS application rate was calculated. To calculate the percent kill rate for each application rate, the following equation was used: ([cell count 0 μl EMS (control)−(cell count of μl EMS (treatment))÷cell count 0 μl EMS (control)]×100%). All other experiments following this experiment used this equation to calculate the percent kill rate.

[1] = Table 12, 25 μl EMS, decreased washing
[2] = Table 14 (repeat of Table 13), 40 μl EMS
[3] = Table 14 (repeat of Table 13), 45 μl EMS
[4] = Table 15 (repeat of Table 14), 45 μl EMS
[5] = Table 15 (repeat of Table 14), 50 μl EMS

In the case of `CCOS(C)(=O)=O` [EMS, ethyl methanesulfonate], the “Cell counts (approximate cfu/ml)” value (Table 10, 10 μl EMS, 30 minutes at 30° C.) is reported as “no difference”, the “Cell counts (approximate cfu/ml)” value (Table 11, 15 μl EMS) is reported as 2.24 × 10^9 cfu/ml and the Percent kill rate (Table 11, 15 μl EMS) is reported as 10.17%. The “Cell counts (approximate cfu/ml)” value (Table 11, 25 μl EMS) was 1.72 × 10^9 cfu/ml, the Percent kill rate (Table 11, 25 μl EMS) was 30.92% and the “Cell counts (approximate cfu/ml)” value (Table 11, 50 μl EMS) was 1.67 × 10^1 cfu/ml. For the same compound, the “Cell counts (approximate cfu/ml)” value [1] was 1.27 × 10^9 cfu/ml, the Percent kill rate [1] was 73.09% and the “Cell counts (approximate cfu/ml)” value (Table 12, 35 μl EMS) was 5.37 × 10^8 cfu/ml. For the same compound, the Percent kill rate (Table 12, 35 μl EMS) was 88.58%, the “Cell counts (approximate cfu/ml)” value (Table 12, 50 μl EMS) was 2.93 × 10^2 cfu/ml and the Percent kill rate (Table 12, 50 μl EMS) was 100%. The “Cell counts (approximate cfu/ml)” value (Table 13, 40 μl EMS) was 6.97 × 10^8 cfu/ml, the Percent kill rate (Table 13, 40 μl EMS) was 82.26% and the “Cell counts (approximate cfu/ml)” value (Table 13, 45 μl EMS) was 8.57 × 10^7 cfu/ml. For the same compound, the Percent kill rate (Table 13, 45 μl EMS) was 97.82%, the “Cell counts (approximate cfu/ml)” value (Table 13, 50 μl EMS) was 2.65 × 10^5 cfu/ml and the Percent kill rate (Table 13, 50 μl EMS) was 99.99%. For the same compound, the “Cell counts (approximate cfu/ml)” value [2] was 1.35 × 10^9 cfu/ml, the Percent kill rate [2] was 99.81% and the “Cell counts (approximate cfu/ml)” value [3] was 5.27 × 10^8 cfu/ml. For the same compound, the Percent kill rate [3] was 99.93%, the “Cell counts (approximate cfu/ml)” value (Table 14 (repeat of Table 13), 50 μl EMS) was 2.19 × 10^6 cfu/ml and the “Cell counts (approximate cfu/ml)” value [4] was 3.33 × 10^4 cfu/ml. For the same compound, the Percent kill rate [4] was 99.98%, the “Cell counts (approximate cfu/ml)” value [5] was 4.33 × 10^1 cfu/ml and the Percent kill rate [5] was 100%.
